Assay results: ChEMBL document CHEMBL1129075, “Synthesis and binding activity of some pyrazolo[1,5-c]quinazolines as tools to verify an optional binding site of a benzodiazepine receptor ligand” (J Med Chem, 1996)

Experiments:
[1] = target: GABA-A receptor; anion channel; assay: Displacement of [3H]flunitrazepam at GABA-A benzodiazepine receptor in rat brain cortical membranes; assay type: cell membranes, Membrane
[2] = tested on: GABA-A receptor; anion channel; assay: Displacement of [3H]flunitrazepam at GABA-A benzodiazepine receptor in rat brain cortical membranes (insoluble); assay type: cell membranes, Membrane

Structure (SMILES) | Ki [1] [nM] | Ki [2]
Oc1nc2ccccc2c2cc(-c3ccccc3)nn12 | 59 | 
Cn1c(=O)n2nc(-c3ccccc3)cc2c2ccccc21 | > 10000 | 
CCOC(=O)c1cc2c3ccccc3n(CC)c(=O)n2n1 | > 10000 | 
Oc1nc2ccccc2c2cc(-c3nnco3)nn12 |  | Insoluble
CCOC(=O)c1cc2c(cn1)[nH]c1ccccc12 | 4.5 | 
O=C(Oc1ccccc1)c1cc2c3ccccc3nc(O)n2n1 | 3150 | 
c1ccc(-c2cc3c4ccccc4ncn3n2)cc1 | > 10000 | 
Oc1nc2ccccc2c2cc(-c3cccs3)nn12 | 7.4 | 
Oc1nc2ccccc2c2cc(-c3ccco3)nn12 | 16 | 
O=C(O)c1cc2c3ccccc3nc(O)n2n1 | > 10000 | 
Sc1nc2ccccc2c2cc(-c3ccccc3)nn12 | > 10000 | 
CCOC(=O)c1cc2c3ccccc3nc(S)n2n1 | 3290 | 
Oc1nc2ccccc2c2cc(-c3ccccn3)nn12 | 53 | 
CCOC(=O)c1cc2c3ccccc3[nH]c(=O)n2n1 | 28 | 
CCOC(=O)c1cc2c3ccccc3ncn2n1 | > 10000 | 
CCOC(=O)c1cc2c3cc(Cl)ccc3nc(O)n2n1 | 50 | 
Oc1nc2ccc(Cl)cc2c2cc(-c3ccco3)nn12 | 41 | 
CC(C)OC(=O)c1cc2c3ccccc3nc(O)n2n1 | 434 | 
CCOC(=O)c1cc2n(n1)CNc1ccccc1-2 | 70 | 
COC(=O)c1cc2c3ccccc3[nH]c(=O)n2n1 | 22 | 
CCOC(=O)c1cc2c3ccccc3n(C)c(=O)n2n1 | > 10000 | 
c1ccc(-c2cc3n(n2)CNc2ccccc2-3)cc1 | 6570 | 
Cc1nnc(-c2cc3c4ccccc4nc(O)n3n2)o1 | 4590 | 
Oc1nc2ccc(Cl)cc2c2cc(-c3ccccc3)nn12 | 105 | 
Oc1nc2ccccc2c2cc(-c3ccc(Cl)cc3)nn12 | 5300 | 
